Data on 5 compounds can be found in patent US20230381171A1, “AUTOIMMUNE THERAPY” (LDN Pharma Limited, priority 2018, published 2023).

Common to all, as to type: in vivo, human
Data set [1] is described as follows: Laboratory hormone levels of supplemented hormones (Example 3). The procedure: They were also prescribed Dehydroepiandrosterone (DHEA) 5 mg and Nature Throid thyroid hormone supplement 48.75 mg, progesterone 100 mg every night and testosterone cream 4 mg per day for low libido, and they were taking turmeric and krill oil. They started tapering off the plaquenil.
During treatment estradiol 1.0 mg was started and also at this point they were off the plaquenil for 3 weeks totally. […] In addition, their Free T3 (triiodothyronine) was 3.1.
During the treatment regimen, the administered DHEA was increased to 10 mg. The DHEA hormone was measured to be 203, Estradiol 117, progesterone 0.2, T3 3.3.
The patient's levels are at optimal levels where the T3 is in the upper range.

In a further data set the test system is Thyroiditis. The experiment in a line: Case report Example 2: patient with thyroiditis treated with LDN and Vitamin D. The note with it: 5,000 units of Vitamin D per day, before naltrexone.
Data set [2] is described as follows: SpectraCell test of Vitamin D levels (Example 1). The note with it: after a month of treatment; Vitamin D 5,000 units daily; 55 is adequate. From the text: A sufficient amount can be determined by the skilled person by making a routine assessment of certain parameters of the patient to undergo the administration, such as, but not limited to, age, weight, gender, history of illness and/or other lifestyle factors including smoking, alcohol consumption and the level of exercise. Furthermore the skilled person can ascertain whether a dose has been sufficient to raise the vitamin D blood concentration to a sufficient amount by performing routine biochemical and analytical assays on a biological sample obtained from the subject. Preferably, the sample upon which said analysis is to be performed is blood. Examples of such well known assays include but are not limited to mass spectrometry, where the level of vitamin D or active metabolites thereof can be quantitatively measured. A sufficient amount is therefore an amount that achieves the desired blood vitamin D concentration. The desired concentration can be achieved after single administration or after repeated administrations of a dose of vitamin D or an active metabolite thereof. […]

Data set [3] is described as follows: Standard serum test of vitamin D level (Example 2). As for the experimental part: The patient was receiving Synthroid as treatment for hypothyroidism, and they also presented with a rare form of macular degeneration requiring intra-ocular injections and interstitial cystitis. […] At the time they were not aware they had autoimmune thyroiditis.
Their dosage for Nature Throid was 97.5 mg twice a day for their thyroid supplementation. Their vitamin D level was 45 ng/ml, T3 was 4.1 and T4 (thyroxine, which converts into T3 in peripheral tissues) was 0.84. Their thyroid has stabilized as shown by these values; the patient's levels are at optimal levels where the T3 is in the upper range.

Data set [4] deals with Hashimotos Thyroiditis, Fibromyalgia and Eosinophilic Esophaqitis. Description: Case report Example 1: patient treated with LDN and Vitamin D. The settings on record: LDN 1.5 to 4.5 mg daily, Vitamin D 5,000 then 7,000 units per day. As for the experimental part:
Patient's symptoms included severe fatigue and muscle aches and pains over their body from the fibromyalgia. They were already taking Vitamin D at a daily dosage of 5,000 units and 130 mg of Nature Throid supplementation (a porcine product). For the first week of LDN treatment, the patient was administered daily dosages of 1.5 mg LDN and the 5,000 units of Vitamin D continued. During the second week, the daily dosage of LDN was increased to 3.0 mg. During the third week, the daily dosage of LDN was increased to 4.5 mg. […] Administration of Vitamin D was increased to 7,000 units per day.
Her thyroid medication requirements were reduced. Her symptoms of fibromyalgia were resolved after addition of the naltrexone to the regimen.

Data set [5] relates to Systemic Lupus Erythematosus (SLE) and Sjorgren's Disease. Description: Case report Example 3: patient treated with naltrexone and Vitamin D3. The settings on record: plaquenil 200 mg twice a day, before naltrexone.
Where [6] appears, read: testosterone cream 4 mg per day, later measurements.

Turning to `C[C@]12CC[C@H]3[C@@H](CCC4=CC(=O)CC[C@@]43C)[C@@H]1CC[C@@H]2O` [testosterone], in data set [1] (setting [6]), the Free testosterone came out at 1.3 and the total testosterone was determined as 19.
With Vitamin D, in the data set with Thyroiditis, the “effect in regards to interstitial cystitis” value is reported as “did not seem to have any significant effect”. For the same compound, the “Vitamin D levels (SpectraCell test)” value in data set [2] worked out at 47. Also, in data set [3] (5,000 units of vitamin D daily, standard serum test, deficient level), the “vitamin D 25 OH level” value worked out at 39. Besides, the “vitamin D level” value in data set [3] (during LDN and Vitamin D treatment) was found to be 45 ng/mL.
In the case of `O=C1CC[C@@]2(O)[C@H]3Cc4ccc(O)c5c4[C@@]2(CCN3CC2CC2)[C@H]1O5` [naltrexone, morphinan-6-one,17-(cyclopropylmethyl)-4,5-epoxy-3,14-dihydroxy-(5a)], in data set [4], the fibromyalgia symptoms result is “resolved”.
Consider `CCN(CCO)CCCC(C)Nc1ccnc2cc(Cl)ccc12` (centres unmarked) [plaquenil], for which, in data set [5], the benefit on symptoms entry is recorded as “minimal benefit”.
`C[C@]12CC[C@H](O)CC1=CC[C@@H]1[C@@H]2CC[C@]2(C)C(=O)CC[C@@H]12` [DHEA, Dehydroepiandrosterone]: the DHEA hormone level stood at 203 in data set [1] (DHEA increased to 10 mg), 169 in data set [1] (last laboratory results) and 142 in data set [1] (later measurements).
